According to patent US11572590B2, “Methods for evaluating tumor cell spheroids using 3D microfluidic cell culture device” (Dana-Farber Cancer Institute, Inc., priority 2017, dated 2023):
Read-outs that look alike come from different tables or passages of the source.

Columns and labels:
Assay in all cases: SelectScreen Kinase Profiling, single point inhibition and IC50 for off-target kinases
Type in all cases: biochemical
off-target kinases [1] = target: off-target kinases (Homo sapiens, UniProt P30530); details: AXL, ZLYTE, ATP Km app
off-target kinases [2] = target: off-target kinases (Homo sapiens, UniProt Q9Y3S1); details: WNK2, LanthaScreen Binding
off-target kinases [3] = target: off-target kinases (Homo sapiens, UniProt O00311); details: CDC7/DBF4, LanthaScreen Binding
off-target kinases [4] = target: off-target kinases (Homo sapiens, UniProt Q00535)
off-target kinases [5] = target: off-target kinases (Homo sapiens, UniProt P49336); details: CDK8/cyclin C, LanthaScreen Binding
off-target kinases [6] = target: T1, off-target kinases (Homo sapiens, UniProt O14965); details: AURKA (Aurora A), ATP Km app, ZLYTE
T1 sequence (O14965 1-403): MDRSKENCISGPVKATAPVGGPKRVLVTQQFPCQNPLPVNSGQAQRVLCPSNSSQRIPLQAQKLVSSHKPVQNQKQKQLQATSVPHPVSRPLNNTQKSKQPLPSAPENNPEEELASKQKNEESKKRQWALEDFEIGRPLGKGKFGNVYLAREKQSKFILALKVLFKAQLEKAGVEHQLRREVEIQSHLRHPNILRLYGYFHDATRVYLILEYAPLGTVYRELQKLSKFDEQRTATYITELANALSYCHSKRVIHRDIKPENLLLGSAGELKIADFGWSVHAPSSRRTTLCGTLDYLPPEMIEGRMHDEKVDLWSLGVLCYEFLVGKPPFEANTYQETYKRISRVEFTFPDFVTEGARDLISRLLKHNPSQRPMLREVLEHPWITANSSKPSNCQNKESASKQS

off-target kinases [7] = target: T2, off-target kinases (Homo sapiens, UniProt Q16566)
T2 sequence (Q16566 1-473): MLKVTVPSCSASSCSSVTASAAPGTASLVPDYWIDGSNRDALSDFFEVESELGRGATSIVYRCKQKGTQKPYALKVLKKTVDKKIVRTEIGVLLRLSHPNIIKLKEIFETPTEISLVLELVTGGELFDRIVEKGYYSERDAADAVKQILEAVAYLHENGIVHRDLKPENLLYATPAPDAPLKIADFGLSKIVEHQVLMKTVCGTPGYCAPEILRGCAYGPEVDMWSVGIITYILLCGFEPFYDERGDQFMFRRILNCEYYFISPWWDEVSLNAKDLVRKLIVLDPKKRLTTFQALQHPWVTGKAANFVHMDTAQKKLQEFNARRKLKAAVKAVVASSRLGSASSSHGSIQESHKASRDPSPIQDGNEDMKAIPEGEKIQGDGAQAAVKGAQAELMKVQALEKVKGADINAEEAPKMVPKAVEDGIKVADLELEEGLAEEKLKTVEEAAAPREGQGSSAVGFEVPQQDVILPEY

off-target kinases [8] = target: off-target kinases (Homo sapiens, UniProt P34947); details: GRK5, ZLYTE, ATP Km app
Sequence of off-target kinases (Homo sapiens, UniProt P34947) (P34947 whole entry): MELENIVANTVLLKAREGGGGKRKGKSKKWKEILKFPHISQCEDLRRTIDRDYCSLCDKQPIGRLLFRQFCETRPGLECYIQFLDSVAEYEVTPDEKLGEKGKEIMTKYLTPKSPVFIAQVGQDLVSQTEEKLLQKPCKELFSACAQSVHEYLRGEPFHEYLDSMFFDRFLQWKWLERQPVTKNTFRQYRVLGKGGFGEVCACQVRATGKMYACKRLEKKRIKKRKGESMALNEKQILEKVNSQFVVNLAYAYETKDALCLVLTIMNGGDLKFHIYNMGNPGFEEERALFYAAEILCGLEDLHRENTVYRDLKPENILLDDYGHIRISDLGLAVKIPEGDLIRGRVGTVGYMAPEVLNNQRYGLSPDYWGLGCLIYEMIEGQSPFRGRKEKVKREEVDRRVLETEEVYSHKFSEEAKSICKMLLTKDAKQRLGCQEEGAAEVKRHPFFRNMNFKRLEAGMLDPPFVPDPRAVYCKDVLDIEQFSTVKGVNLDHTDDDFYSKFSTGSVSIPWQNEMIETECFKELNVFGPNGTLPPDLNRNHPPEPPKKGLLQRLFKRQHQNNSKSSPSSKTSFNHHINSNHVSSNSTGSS

Sequence of off-target kinases (Homo sapiens, UniProt O00311) (O00311 whole entry): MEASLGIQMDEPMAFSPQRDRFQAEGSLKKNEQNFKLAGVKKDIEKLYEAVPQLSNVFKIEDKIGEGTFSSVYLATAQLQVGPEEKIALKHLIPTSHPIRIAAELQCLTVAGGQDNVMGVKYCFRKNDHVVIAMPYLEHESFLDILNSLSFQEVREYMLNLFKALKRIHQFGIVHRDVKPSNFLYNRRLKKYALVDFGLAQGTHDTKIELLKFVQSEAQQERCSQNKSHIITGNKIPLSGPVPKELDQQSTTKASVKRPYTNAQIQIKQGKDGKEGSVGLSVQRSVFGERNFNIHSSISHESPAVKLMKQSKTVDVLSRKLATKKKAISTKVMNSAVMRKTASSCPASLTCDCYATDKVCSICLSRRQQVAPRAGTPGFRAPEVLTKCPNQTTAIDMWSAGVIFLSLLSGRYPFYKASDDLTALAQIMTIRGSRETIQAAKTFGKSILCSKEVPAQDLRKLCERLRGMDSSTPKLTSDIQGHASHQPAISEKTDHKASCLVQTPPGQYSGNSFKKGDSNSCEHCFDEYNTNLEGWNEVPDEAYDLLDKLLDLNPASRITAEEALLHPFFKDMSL
Sequence of off-target kinases (Homo sapiens, UniProt Q9Y3S1) (Q9Y3S1 whole entry): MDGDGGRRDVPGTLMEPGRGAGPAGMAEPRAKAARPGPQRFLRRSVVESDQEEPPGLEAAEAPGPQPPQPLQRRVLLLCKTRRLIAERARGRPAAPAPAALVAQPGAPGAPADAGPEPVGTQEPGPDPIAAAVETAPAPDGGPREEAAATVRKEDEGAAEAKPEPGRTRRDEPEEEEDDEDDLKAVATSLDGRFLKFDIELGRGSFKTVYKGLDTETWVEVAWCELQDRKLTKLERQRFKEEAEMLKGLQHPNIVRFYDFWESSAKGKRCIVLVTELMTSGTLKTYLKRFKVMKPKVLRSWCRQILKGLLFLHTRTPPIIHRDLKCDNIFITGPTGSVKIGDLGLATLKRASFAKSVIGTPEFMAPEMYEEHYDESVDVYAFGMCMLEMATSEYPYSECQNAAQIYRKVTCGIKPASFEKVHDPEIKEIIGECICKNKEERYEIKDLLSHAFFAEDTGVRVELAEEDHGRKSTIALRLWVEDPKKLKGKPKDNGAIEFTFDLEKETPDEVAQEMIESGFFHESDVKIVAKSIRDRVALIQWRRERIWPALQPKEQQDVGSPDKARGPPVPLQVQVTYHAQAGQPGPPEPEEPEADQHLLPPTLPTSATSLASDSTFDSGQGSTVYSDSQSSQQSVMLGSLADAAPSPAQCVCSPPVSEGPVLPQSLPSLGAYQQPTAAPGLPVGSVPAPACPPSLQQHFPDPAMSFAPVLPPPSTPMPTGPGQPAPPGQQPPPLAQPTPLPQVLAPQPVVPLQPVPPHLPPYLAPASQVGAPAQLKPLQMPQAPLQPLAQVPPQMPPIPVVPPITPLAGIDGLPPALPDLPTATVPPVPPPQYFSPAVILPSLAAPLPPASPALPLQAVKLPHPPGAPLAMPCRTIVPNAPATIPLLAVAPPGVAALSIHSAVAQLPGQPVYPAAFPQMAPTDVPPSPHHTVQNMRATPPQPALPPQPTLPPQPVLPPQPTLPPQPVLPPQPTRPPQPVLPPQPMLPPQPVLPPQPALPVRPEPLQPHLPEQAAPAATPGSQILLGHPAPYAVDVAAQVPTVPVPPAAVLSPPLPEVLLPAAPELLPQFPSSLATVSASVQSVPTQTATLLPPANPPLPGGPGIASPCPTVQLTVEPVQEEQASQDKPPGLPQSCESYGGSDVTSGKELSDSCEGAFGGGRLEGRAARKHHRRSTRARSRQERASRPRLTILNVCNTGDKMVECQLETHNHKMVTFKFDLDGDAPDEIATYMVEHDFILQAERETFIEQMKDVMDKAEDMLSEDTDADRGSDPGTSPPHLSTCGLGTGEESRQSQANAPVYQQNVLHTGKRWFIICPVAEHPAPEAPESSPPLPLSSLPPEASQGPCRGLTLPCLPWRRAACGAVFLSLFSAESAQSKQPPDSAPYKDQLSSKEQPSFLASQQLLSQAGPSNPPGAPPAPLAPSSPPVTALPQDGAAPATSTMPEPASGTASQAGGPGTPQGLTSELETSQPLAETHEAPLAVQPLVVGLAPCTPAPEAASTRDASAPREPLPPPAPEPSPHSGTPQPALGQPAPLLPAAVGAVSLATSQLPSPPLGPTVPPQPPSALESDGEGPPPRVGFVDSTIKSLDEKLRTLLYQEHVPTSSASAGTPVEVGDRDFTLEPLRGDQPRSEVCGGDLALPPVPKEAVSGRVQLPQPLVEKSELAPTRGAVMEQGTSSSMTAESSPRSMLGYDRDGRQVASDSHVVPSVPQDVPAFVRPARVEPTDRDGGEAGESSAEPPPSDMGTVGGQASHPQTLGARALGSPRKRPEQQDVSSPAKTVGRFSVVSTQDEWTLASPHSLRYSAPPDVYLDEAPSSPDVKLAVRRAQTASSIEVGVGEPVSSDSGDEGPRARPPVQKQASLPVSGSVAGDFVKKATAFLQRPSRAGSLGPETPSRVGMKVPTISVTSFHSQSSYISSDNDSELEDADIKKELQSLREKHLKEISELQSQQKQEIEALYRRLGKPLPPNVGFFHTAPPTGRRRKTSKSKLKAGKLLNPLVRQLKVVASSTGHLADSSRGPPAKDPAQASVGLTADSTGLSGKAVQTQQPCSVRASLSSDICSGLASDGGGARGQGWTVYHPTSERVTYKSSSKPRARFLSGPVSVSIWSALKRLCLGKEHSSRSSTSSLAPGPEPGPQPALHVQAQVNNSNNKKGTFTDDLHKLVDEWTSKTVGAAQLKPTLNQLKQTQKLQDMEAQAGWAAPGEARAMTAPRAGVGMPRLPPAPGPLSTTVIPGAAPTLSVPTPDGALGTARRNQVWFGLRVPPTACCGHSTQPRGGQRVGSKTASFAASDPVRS
Sequence of off-target kinases (Homo sapiens, UniProt P30530) (P30530 26-894): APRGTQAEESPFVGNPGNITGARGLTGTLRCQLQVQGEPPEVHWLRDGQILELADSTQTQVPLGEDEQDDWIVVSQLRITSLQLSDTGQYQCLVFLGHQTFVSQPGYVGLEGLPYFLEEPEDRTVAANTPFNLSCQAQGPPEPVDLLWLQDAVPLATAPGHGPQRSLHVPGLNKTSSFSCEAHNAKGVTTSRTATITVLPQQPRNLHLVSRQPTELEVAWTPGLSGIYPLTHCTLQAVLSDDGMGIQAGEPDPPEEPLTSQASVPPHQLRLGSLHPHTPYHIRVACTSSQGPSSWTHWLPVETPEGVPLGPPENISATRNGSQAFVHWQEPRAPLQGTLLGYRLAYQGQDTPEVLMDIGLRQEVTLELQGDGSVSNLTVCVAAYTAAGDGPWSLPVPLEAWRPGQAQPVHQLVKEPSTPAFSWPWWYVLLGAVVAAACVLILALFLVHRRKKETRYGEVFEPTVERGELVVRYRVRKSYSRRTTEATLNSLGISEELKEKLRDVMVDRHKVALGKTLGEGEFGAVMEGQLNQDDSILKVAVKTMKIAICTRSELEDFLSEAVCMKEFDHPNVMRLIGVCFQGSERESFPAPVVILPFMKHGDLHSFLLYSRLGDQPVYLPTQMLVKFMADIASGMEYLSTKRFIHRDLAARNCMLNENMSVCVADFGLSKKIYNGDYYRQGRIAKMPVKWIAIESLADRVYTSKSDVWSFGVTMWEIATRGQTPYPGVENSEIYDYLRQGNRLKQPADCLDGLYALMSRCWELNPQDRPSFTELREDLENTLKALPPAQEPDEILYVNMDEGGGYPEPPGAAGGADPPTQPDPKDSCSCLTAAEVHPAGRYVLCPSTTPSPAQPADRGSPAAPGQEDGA
Sequence of off-target kinases (Homo sapiens, UniProt Q00535) (Q00535 whole entry): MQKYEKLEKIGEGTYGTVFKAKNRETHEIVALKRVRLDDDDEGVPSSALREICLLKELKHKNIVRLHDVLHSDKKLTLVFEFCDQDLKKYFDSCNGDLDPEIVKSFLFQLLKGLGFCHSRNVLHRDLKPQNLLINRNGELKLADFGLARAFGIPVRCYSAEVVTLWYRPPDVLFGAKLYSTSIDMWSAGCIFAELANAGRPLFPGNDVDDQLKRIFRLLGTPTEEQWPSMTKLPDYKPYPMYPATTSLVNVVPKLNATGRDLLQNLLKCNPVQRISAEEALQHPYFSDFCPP
Sequence of off-target kinases (Homo sapiens, UniProt P49336) (P49336 whole entry): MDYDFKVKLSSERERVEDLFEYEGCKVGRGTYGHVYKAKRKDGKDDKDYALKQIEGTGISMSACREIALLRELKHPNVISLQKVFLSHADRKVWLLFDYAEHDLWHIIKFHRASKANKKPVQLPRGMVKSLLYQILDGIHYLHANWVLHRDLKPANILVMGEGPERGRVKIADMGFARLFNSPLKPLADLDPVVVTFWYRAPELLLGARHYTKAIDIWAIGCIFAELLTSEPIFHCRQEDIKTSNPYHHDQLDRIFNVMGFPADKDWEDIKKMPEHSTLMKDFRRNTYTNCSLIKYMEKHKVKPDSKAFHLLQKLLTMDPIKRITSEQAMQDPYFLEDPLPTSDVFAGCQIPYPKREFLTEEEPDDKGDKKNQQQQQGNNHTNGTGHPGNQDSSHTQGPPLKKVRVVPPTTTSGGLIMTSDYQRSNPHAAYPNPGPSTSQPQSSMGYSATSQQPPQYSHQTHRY

SMILES: N#Cc1cc(-c2ncnc(Nc3ccc(N4CCN(C5COC5)CC4)cc3)n2)ccc1OC1CCOCC1 [Compound 1, 5-(4-((4-(4-(oxetan-3-yl)piperazin-1-yl)phenyl)amino)-1,3,5-triazin-2-yl)-2-((tetrahydro-2H-pyran-4-yl)oxy)benzonitrile]
- inhibition (off-target kinases [1]; read-out: % Inhibition 1): 22%
- inhibition (off-target kinases [1]; read-out: % Inhibition 2): 25%
- inhibition (off-target kinases [1]; read-out: % Inhibition Avg): 24%
- inhibition (off-target kinases [2]; read-out: % Inhibition 1): -4%
- inhibition (off-target kinases [2]; read-out: % Inhibition 2): 5%
- inhibition (off-target kinases [2]; read-out: % Inhibition Avg): 1%
- inhibition (off-target kinases [3]; read-out: % Inhibition 1): 100%
- inhibition (off-target kinases [3]; read-out: % Inhibition 2): 97%
- inhibition (off-target kinases [3]; read-out: % Inhibition Avg): 98%
- inhibition (off-target kinases [4]; CDK5 (Inactive), LanthaScreen Binding, read-out: % Inhibition 1): 1%
- inhibition (off-target kinases [4]; CDK5 (Inactive), LanthaScreen Binding, read-out: % Inhibition 2): -2%
- inhibition (off-target kinases [4]; CDK5/p25, ZLYTE, ATP Km app, read-out: % Inhibition 1): 3%
- inhibition (off-target kinases [4]; CDK5/p25, ZLYTE, ATP Km app, read-out: % Inhibition 2): 1%
- inhibition (off-target kinases [4]; CDK5/p25, ZLYTE, ATP Km app, read-out: % Inhibition Avg): 2%
- inhibition (off-target kinases [4]; CDK5/p35, ZLYTE, ATP Km app, read-out: % Inhibition 1): 7%
- inhibition (off-target kinases [4]; CDK5/p35, ZLYTE, ATP Km app, read-out: % Inhibition 2): 2%
- inhibition (off-target kinases [4]; CDK5/p35, ZLYTE, ATP Km app, read-out: % Inhibition Avg): 5%
- inhibition (off-target kinases [4]; read-out: % Inhibition Avg): -1%
- inhibition (off-target kinases [5]; read-out: % Inhibition 1): 0%
- inhibition (off-target kinases [5]; read-out: % Inhibition 2): 3%
- inhibition (off-target kinases [5]; read-out: % Inhibition Avg): 1%
- inhibition (off-target kinases [6]; read-out: % Inhibition 1): 91%
- inhibition (off-target kinases [6]; read-out: % Inhibition 2): 86%
- inhibition (off-target kinases [6]; read-out: % Inhibition Avg): 89%
- inhibition (off-target kinases [7]; CAMK4 (CaMKIV), ZLYTE, ATP Km app, read-out: % Inhibition 2): -2%
- inhibition (off-target kinases [7]; CAMK4 (CaMKIV), ZLYTE, ATP Km app, read-out: % Inhibition Avg): -2%
- inhibition (off-target kinases [7]; read-out: % Inhibition 1): -2%
- inhibition (off-target kinases [8]; read-out: % Inhibition 1): 5%
- inhibition (off-target kinases [8]; read-out: % Inhibition 2): -10%
- inhibition (off-target kinases [8]; read-out: % Inhibition Avg): -3%
